# In patent publication EP0648744A1, “Phenylalkanolamine derivatives as antagonists of the NMDA receptor” (F. HOFFMANN-LA ROCHE AG, priority 1993, dated 1995):
# Key:
# embryonic rat cortices = assay: Acute glutamate neurotoxicity in cortical cell cultures (lactate dehydrogenase release); format: cell-based; settings: neuronal degeneration, 500 µM glutamate for 5 to 30 minutes at room temperature, lactate dehydrogenase in supernatant after overnight at 37°C, read-out: IC₅₀
# Experimental: 2. Acute Glutamate Neurotoxicity
# Single cell suspensions were prepared from embryonic rat cortices (E16-17) by digestion with dispase 2.4 U/ml (BOEHRINGER) and subsequent trituration with fire polished pasteur pipettes. The cells were then plated on poly-D-lysine (SIGMA) coated 96 well microtiter plates (NUNC, 10⁵ cells/well) in a total volume of 100 µl Dulbeccos modified essential medium (DMEM, GIBCO) supplemented with 10% horse serum and penicillin/streptomycin (SIGMA). 5 days later, non-neuronal cell division was halted by exposure to […] combined with a 50% exchange of culture medium. The cultures were used for neurotoxicity assays from 8-12 days in vitro.
# Acute glutamate toxicity was performed according to D.W. Choi. J. Koh and S. Peters, J. Neurosci. 8 (1988) 185-196, in 100 µl of a control salt solution (CSS: 120 mM NaCl, 5.4 mM KCl, 0.8 mm MgCl₂, 1.8 mM CaCl₂, 25 mM Tris HCl (pH 7.4 at 25°C) and 15 mM glycose) with 500 µM glutamate for 5 to 30 minutes at room temperature with or without addition of substances to be tested.
# After washing, the cultures were maintained in 100 µl CSS overnight at 37°C. For quantitation of neurodegeneration, lactate dehydrogenase was measured in the cell culture supernatant as described by J.G. Klingman, D.M. Hartley and D.W. Choi, J. Neurosci. Meth. 31 (1990) 47-51 using a BIOMEK workstation (BECKMAN). […] From dose response curves IC₅₀ values were calculated.
# NMDA receptor = assay: 3H-MK 801 (dizocilpine) binding in vitro, rat brain membranes; settings: displacement of 5 nM ³H-MK 801, washed rat brain membranes; high affinity values determined from biphasic displacement curves; read-out: IC₅₀
# Experimental: 1. ^3H-MK 801 (dizocilpine) binding in vitro
# ³H-MK 801 binding was performed as described in Ransom, R.W. and Stec, N.L., J. Neurochem. 51 (1988) 830-836, with extensively washed rat brain membranes prepared according to the following scheme. Frozen whole rat brain was thawed and cerebellum and medulla oblongata were removed on ice. The tissue was then homogenized with an Ultra Turrax (maximal energy) during 30 sec at 4°C in 50 volumes of Tris·HC1 (5mM) with ethylenediaminetetraacetic acid (EDTA) disodium (10 mM, pH = 7.4). The homogenate was centrifuged at 48'000 x g for 10 min. The pellet was rehomogenized with the same volume of the same buffer and the homogenate was then incubated at 37°C for 10 min. After centrifugation the pellet was rehomogenized under the same conditions and frozen at -80°C in 35 ml fractions for at least 16 hours and not more than 2 weeks.
# On the day of experiment, the homogenate was thawed 15 minutes at 37°C and centrifuged as above. The pellet was rehomogenized in 25 volumes of Tris·HC1 buffer (5mM, pH = 7.4) and the homogenate was recentrifuged. This procedure was repeated twice. The final pellet was rehomogenized in 25 volumes of Tris·HC1 buffer (5 mM, pH = 7.4) related to the original wet weight and used as such in the assay. Final concentration in the assay was 20 mg/ml.
# 300 µl of tracer solution (final concentration 5 nM ³H-MK 801) in Tris·HC1 buffer (5 mM, pH 7.4) were incubated with 100 µl of test solution (100 µl of Tris·HC1 buffer for the total binding or 100 µl of buffer plus N-(1-(2-thienyl)cyclohexyl)piperidine (TCP) (final concentration 0.1 µM) for non specific binding). Glutamate, glycine and spermidine (final concentrations 1nM) were added together in 100 µl volume. 500 µl of homogenate (final concentration 20 mg/ml) were then added in the plastic reaction tubes. After 2 hours of incubation at room temperature, the suspension was filtered (Whatmann GF/B, presoaked in 0.05% polyethylenimine for 2 hours) and washed 5 times with 3 ml of cold buffer. The air-dried (3 min) filters were counted in 10 ml of Ultima-gold (Packard) after agitation (10 min.) and standing for 2 hours at 3°C in vials.
# These are high affinity values determined from biphasic displacement curves.
SMILES,IC50 (embryonic rat cortices) [nM],IC50 (NMDA receptor) [nM]
"CC(CCN1CCC(Cc2ccccc2)CC1)Cc1ccc(O)cc1 (racemic) [Ex. 6, rac.-4-[2-Methyl-4-[4-(phenylmethyl)-1-piperidinyl]butyl]phenol]",3500,530
"CC(Cc1ccc(O)cc1)C(C)N1CCC(Cc2ccccc2)CC1 (racemic) [Ex. 10, rac.-4-[2-Methyl-3-[4-(phenylmethyl)-1-piperidinyl]butyl]phenol]",120,150
"CC(Cc1ccccc1)CN1CCC(Cc2ccccc2)CC1 (racemic) [Ex. 21, rac.-1-(2-Methyl-3-phenylpropyl)-4-(phenylmethyl)piperidine]",13000,1400
"C[C@@H](CCN1CCC(Cc2ccccc2)CC1)[C@@H](O)c1ccc(O)cc1 (relative stereo) [Ex. 5, (R*,S*)-rac.-α-(4-Hydroxyphenyl)-β-methyl-4-(phenylmethyl)-1-piperidinebutanol]",1900,300
"C[C@@H](CN1CCC(Cc2ccccc2)CC1)[C@@H](O)c1ccc(OCc2ccccc2)cc1 (relative stereo) [Ex. 7, (R*,S*)-rac.-β-Methyl-α-[4-(phenylmethoxy)phenyl]-4-(phenylmethyl)-1-piperidinepropanol]",64000,1300
"C[C@@H](CN1CCC(Cc2ccccc2)CC1)[C@@H](O)c1ccc(O)cc1 (relative stereo) [Ex. 8, (R*,S*)-rac.-α-(4-hydroxyphenyl)-β-methyl-4-(phenylmethyl)-1-piperidinepropanol]",40,5
"C[C@H](CN1CCC(Cc2ccccc2)CC1)[C@@H](O)c1ccc(O)cc1 (relative stereo) [Ex. 9, (R*,R*)-rac.-α-(4-Hydroxyphenyl)-β-methyl-4-(phenylmethyl)-1-piperidinepropanol]",110,6
"C[C@@H](CN1CCC(Cc2ccccc2)CC1)C(=O)c1ccc(OCc2ccccc2)cc1 [Ex. 12, (S)-2-Methyl-1-[4-(phenylmethoxy)phenyl]-3-[4-(phenylmethyl)-1-piperidinyl]-1-propanone]",66000,900
"C[C@@H](CN1CCC(Cc2ccccc2)CC1)[C@@H](O)c1ccc(O)cc1 [Ex. 15, [R-(R*S*)]-α-(4-Hydroxyphenyl)-β-methyl-4-(phenylmethyl)-1-piperidinepropanol]",60,1.3
"C[C@H](CN1CCC(Cc2ccccc2)CC1)[C@H](O)c1ccc(O)cc1 [Ex. 16, [S-(R*S*)]-α-(4-Hydroxyphenyl)-β-methyl]-4-(phenylmethyl)-1-piperidinepropanol]",80,3
